The source of these data is patent US11541041B1, “Compounds that interact with the Ras superfamily for the treatment of cancers, inflammatory diseases, Rasopathies, and fibrotic disease” (Shy Therapeutics LLC, priority 2017, dated 2023).

In general, inhibition refers to the drop in the measured response relative to a control, in per cent.

In assay [1] the test system is MAPK phosphorylation in PANC-1 pancreatic cancer cell line. Description: MAPK cell-based phosphorylation assay (cell-direct ELISA, EGF-stimulated). To be noted: Homo sapiens. As for the experimental part: Cell lines: Tumor-derived pancreatic cancer cell lines PANC-1 were purchased from ATCC and were maintained according to ATCC recommendation.
Method: Cells were plated at 7500 cells/well density in 96-wells plate, starved over night, and the small molecules to be tested were added to the cells in the final concentration of 30 μM with 0.3% DMSO for 6 hours incubation at 37° C. For IC50 value determination, serial dilutions of compounds were added to cells under the same conditions. Next, cells were stimulated with 1.5 ng/ml EGF for 15 min. followed by cell fixation with 4% Formaldehyde in PBS at RT for 20 min. Phosphorylation level of MAPK was determined by Cell-direct ELISA.
Cell-direct ELISA: For each well, cells were permeabilized with PBS-Triton 0.1%, quenched with H2O2 0.6% in PBS-Triton 0.1%, and probed with anti-phospho-MAPK antibodies (R&D Systems) followed by HRP-conjugated secondary antibody (Jackson Immunoresearch, West Grove, Pa.). Next, a solution 50 μM of the fluorescent substrate AmpliFlu Red (Sigma) was added and incubated at RT for 20 min. At the end of the incubation time, fluorescence was measured at 595 nm on a microplate reader (AF2200; Eppendorf, Inc., Hamburg, Germany).

The next assay deals with KRas G12D mutant protein (Homo sapiens (Human), UniProt P01116, G12D). The experiment in a line: Ras GTP binding domain inhibition assay. The conditions noted are these: 20 μM compound; read-out: % Inhibition at 20 μM, KRas G12D. On the procedure: The following method was developed as specific assay for KRas G12D mutant protein.
Chain of KRas G12D mutant protein (P01116-2 other isoform, or with tags, fused parts or gaps G12D): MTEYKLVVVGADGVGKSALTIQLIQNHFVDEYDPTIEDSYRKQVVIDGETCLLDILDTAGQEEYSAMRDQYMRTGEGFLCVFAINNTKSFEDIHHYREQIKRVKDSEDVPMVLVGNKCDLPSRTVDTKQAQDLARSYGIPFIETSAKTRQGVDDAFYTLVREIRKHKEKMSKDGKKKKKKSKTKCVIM
(§1) Buffer-I: • 50 mM Tris, pH 7.5 • 150 mM NaCl (optional) • 1 mM MgCl2 • 1 mM DTT. • KRas G12D mutant protein was expressed as a His-tagged protein. Purified His-KRas G12D protein was diluted in buffer-I to a final concentration of 3-10 μg/ml. • 200 μl of the diluted His-KRas G12D protein was added to a nickel coated 96 well plate and incubated overnight at 4° C. • The next day, wells were washed 3× in 200 μl of Buffer-I. • Then 200 μl of Buffer-I were added to each well in the presence of 1% DMSO. • Tested compounds were added to the protein-coated wells at a concentration of 20 μM, and incubated for 3 hours at room temperature. While performing IC50 measurements a serial dilution of all tested concentrations was prepared.
(§2) Then 22 μl of Cy3-GTP or Cy5-GTP was added to each well. The labeled GTP was incubated for 45 min. at room temperature. • Following GTP incubation, wells were washed 3× in Buffer-I, and 200 μl of Buffer-I were added to each well. • Following washes, the amount of bound labeled-GTP was measured with an Eppendorf AF2200 plate reader.

The target of another assay is KRas G12C mutant (Homo sapiens (Human), UniProt P01116, G12C). Description: Ras GTP binding domain inhibition assay. The conditions noted are these: 20 μM compound. As for the experimental part:
as §1, §2
(§3) By substituting KRas G12D mutant protein with KRas G12C mutant, KRas wild type, KRas Q61H mutant, KRas G12D/Q61H double mutant or KRas G12C/Q61H double mutant under the assay conditions described above, KRas G12C mutant KRas wild type, KRas Q61H mutant, KRas G12D/Q61H double mutant and KRas G12C/Q61H double mutant inhibition, respectively, were each determined.

In assay [2] the target is KRas G12D/Q61H double mutant (Homo sapiens (Human), UniProt P01116, G12D/Q61H). Description: Ras GTP binding domain inhibition assay. The conditions noted are these: 20 μM compound; read-out: % Inhibition at 20 μM, KRas G12D Q61H. As for the experimental part: as §1, §2, §3
Chain of KRas G12D/Q61H double mutant (P01116-2 other isoform, or with tags, fused parts or gaps G12D/Q61H): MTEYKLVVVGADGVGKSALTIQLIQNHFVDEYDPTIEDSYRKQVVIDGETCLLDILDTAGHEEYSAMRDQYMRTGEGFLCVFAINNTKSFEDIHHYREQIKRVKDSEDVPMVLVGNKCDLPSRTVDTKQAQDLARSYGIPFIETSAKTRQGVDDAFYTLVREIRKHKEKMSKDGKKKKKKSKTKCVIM
The target of another assay is KRas wild type (Homo sapiens (Human), UniProt P01116). The experiment in a line: Ras GTP binding domain inhibition assay. To be noted: 20 μM compound. On the procedure:
as §1, §2, §3

A further assay concerns the target KRas Q61H mutant (Homo sapiens (Human), UniProt P01116, Q61H). The experiment in a line: Ras GTP binding domain inhibition assay. To be noted: 20 μM compound. As for the experimental part: as §1, §2, §3
In assay [3] the target is KRas G12C/Q61H double mutant (Homo sapiens (Human), UniProt P01116, G12C/Q61H). The experiment in a line: Ras GTP binding domain inhibition assay. The conditions noted are these: 20 μM compound. On the procedure:
as §1, §2, §3

The structures appear in SMILES notation.

Chain of KRas G12C/Q61H double mutant (P01116-2 other isoform, or with tags, fused parts or gaps G12C/Q61H): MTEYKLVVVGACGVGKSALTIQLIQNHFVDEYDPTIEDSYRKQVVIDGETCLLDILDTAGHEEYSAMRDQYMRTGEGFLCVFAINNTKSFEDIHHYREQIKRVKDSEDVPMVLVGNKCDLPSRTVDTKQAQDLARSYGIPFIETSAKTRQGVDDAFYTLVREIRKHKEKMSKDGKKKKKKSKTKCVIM
Chain of KRas Q61H mutant (P01116-2 other isoform, or with tags, fused parts or gaps Q61H): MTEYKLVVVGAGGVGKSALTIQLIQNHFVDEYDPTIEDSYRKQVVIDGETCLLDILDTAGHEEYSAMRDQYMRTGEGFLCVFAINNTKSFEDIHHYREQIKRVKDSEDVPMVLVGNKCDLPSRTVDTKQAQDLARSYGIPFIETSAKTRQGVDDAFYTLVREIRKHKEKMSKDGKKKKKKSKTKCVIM
Chain of KRas wild type (P01116-2 other isoform, or with tags, fused parts or gaps): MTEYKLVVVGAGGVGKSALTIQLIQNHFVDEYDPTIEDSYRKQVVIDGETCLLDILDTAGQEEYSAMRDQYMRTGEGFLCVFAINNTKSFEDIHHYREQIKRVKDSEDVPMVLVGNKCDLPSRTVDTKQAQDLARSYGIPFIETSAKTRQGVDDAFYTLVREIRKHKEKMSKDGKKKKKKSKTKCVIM
Chain of KRas G12C mutant (P01116-2 other isoform, or with tags, fused parts or gaps G12C): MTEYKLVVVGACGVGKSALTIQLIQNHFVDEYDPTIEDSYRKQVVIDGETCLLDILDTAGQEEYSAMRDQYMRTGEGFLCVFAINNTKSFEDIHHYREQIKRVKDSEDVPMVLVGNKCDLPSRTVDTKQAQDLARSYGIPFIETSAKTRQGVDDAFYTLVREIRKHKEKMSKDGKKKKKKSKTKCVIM

Take `O=C(CCc1c[nH]c2ccccc12)Nc1nnc(-c2cccnc2)[nH]1`: in assay [1], the inhibition at 30 µM was 25 to 50%.

`O=C(Nc1nnc(-c2ccccc2)[nH]1)C1CCCC1` gave an inhibition at 30 µM in assay [1] of 1 to 25%.

`O=C(Nc1nnc(-c2ccccc2)[nH]1)c1ncoc1-c1cccs1` registered an inhibition at 30 µM in assay [1] of 25 to 50%.

In the case of `Oc1nc(-c2ccccn2)nc2c(-c3ccccc3)csc12`, the inhibition at 10 µM in assay [1] (* = tested at 10 μM) lay within 25 to 50%.

For the compound `O=C(CCCc1cccnc1)N1CCCc2c(O)nc(C3C=CC=CN3)nc21` (stereo not shown), the inhibition at 20 µM fell in the range of 51 to 75% at KRas G12D mutant protein, 51 to 75% on KRas G12C mutant, 51 to 75% in assay [2] and 25 to 50% on KRas wild type.

On to `COC(=O)c1c(C)sc2c(O)nc(-c3ccccn3)nc12`, for which, on KRas Q61H mutant, the “% Inhibition at 20 μM, KRas Q61H” value is “D (D = 76-100% inhibition)”.

Turning to `Nc1nc(-c2ccccn2)nc2c(C3CC3)csc12`, the inhibition at 20 µM lay in the range of 51 to 75% on KRas G12D mutant protein; 25 to 50% at KRas G12C mutant; 1 to 25% in assay [3]; 25 to 50% in assay [2]; 25 to 50% at KRas Q61H mutant; 25 to 50% on KRas wild type.

Regarding `Nc1nc(-c2ccccn2)nc2c(CC3CNC3)csc12`, the inhibition at 20 µM was 51 to 75% in assay [3], 25 to 50% in assay [2] and 51 to 75% on KRas Q61H mutant.

Consider `Cc1nc(-c2nccn2C)nc2sc(-c3ccccc3)c(-c3ccccc3)c12`, for which the inhibition at 20 µM (in assay [3]; in assay [2]; at KRas Q61H mutant) was 1 to 25% in each case.

Consider `Cc1nc(-c2cn(C)cn2)nc2sc(-c3ccc(CNC(=O)OC(C)(C)C)cc3)c(-c3ccccc3)c12`, for which the inhibition at 20 µM (in assay [3]; in assay [2]; at KRas Q61H mutant) was 1 to 25% throughout.

`COCCNc1nc(-c2nccn2C)nc2sc(-c3ccccc3)c(-c3ccccc3)c12` [drawing 3568]: the “% Inhibition at 20 μM, KRas G12C” value at KRas G12C mutant is “C (C = 51-75% inhibition)”. The inhibition at 20 µM (in assay [3]; on KRas Q61H mutant) was 51 to 75% each time. Also, at KRas wild type, the “% Inhibition at 20 μM, KRas wild type” value is recorded as “A (A = 1-25% inhibition)”.
